# Source: patent US8158635B2, “Solid forms comprising 4-[9-(tetrahydro-furan-3-yl)-8-(2,4,6-trifluoro-phenylamino)-9H-purin-2-ylamino]-cyclohexan-1-ol, compositions thereof, and uses therewith” (Signal Pharmaceuticals, LLC, priority 2006, dated 2012)
# Where a name gives a salt, the structure may show the parent alone.
# What was measured:
# [1] = Storage stability at stress conditions (about 40° C. and about 75% RH); type: physicochemical; details: about 40° C. and about 75% RH for about four weeks
# Method: In certain embodiments, Form A of the HCl salt of Compound I is substantially pure. In certain embodiments, Form A of the HCl salt of Compound I is stable upon slurry in particular solvents at particular temperatures. For example, in certain embodiments, Form A of the HCl salt is stable in, e.g., acetone, acetonitrile, ethyl acetate, heptane, MTBE, toluene, THF and mixtures of two or more thereof at about 40° C. for about four weeks. In certain embodiments, Form A of the HCl salt is stable upon storage at particular stress conditions. For example, in certain embodiments, Form A of the HCl salt of Compound I is stable upon storage at about 40° C. and about 75% RH for about four weeks.
# [2] = Equilibration of solid form in solvent for 4 weeks at 40° C., resulting form by XRPD; type: physicochemical
# Method: Equilibration slurry and evaporation experiments were carried out by adding an excess of Compound I free base or HCl salt to 2 mL of solvent. […] Upon reaching equilibrium, the saturated supernatant solution was removed and allowed to evaporate slowly in an open vial under nitrogen at 25° C. or 50° C., respectively. The slurry resulting from the equilibration was filtered and air-dried. X-ray powder diffraction (XRPD) measurements were performed in accordance with United States Pharmacopeia (USP) monograph <941> entitled “X-ray Diffraction” (See, e.g., The United States Pharmacopeia, The National Formulary, 2003, The Unites States Pharmacopeial Convention, Inc., Rockville, Md., 2002, which is herein incorporated by reference in its entirety). A Thermo ARL X'TRA X-ray powder diffractometer (Thermo Electron Corp., Waltham, Mass.), equipped with Nickel-filtered Cu Kα radiation at 1.54 Å, was used for XRPD measurements from about 1.5 °2θ to about 40 °2θ, with a step size of about 0.020°, a count time of about 0.50 seconds per step, and a step scan rate of about 2.40°/min. The instrument was equipped with a fine focus X-ray tube. The voltage and amperage were set at 45 kV and 40 mA, respectively. The divergence slits were set at 0.5 mm and 0.2 mm. Diffracted radiation was measured using a Peltier-cooled Si (Li) solid-state detector. Representative XRPD patterns were presented displaying intensity (counts per second) versus position (°2θ). A sintered alumina standard was used to check peak positions. Peak positions may vary from sample to sample by approximately ±0.1 °2θ. Variation in peak position may depend upon multiple factors, including particle size, sample preparation, data collection temperature and parameters. Variation in peak intensity may occur, e.g., as a result of preferred orientation and/or variation in crystal habit.
smiles,measurement,setting,value
"OC1CCC(Nc2ncc3nc(Nc4c(F)cc(F)cc4F)n(C4CCOC4)c3n2)CC1 (stereo not shown) [Form A of the HCl salt of Compound I, 4-[9-(tetrahydro-furan-3-yl)-8-(2,4,6-trifluoro-phenylamino)-9H-purin-2-ylamino]-cyclohexan-1-ol]",stability upon storage at stress conditions,[1],stable
same,Resulting Form by XRPD,[2]; Equilibrate HCl salt Form A in 2-Propanol for 4 weeks at 40° C.,Compound I HCl Salt Form A
same,Resulting Form by XRPD,[2]; Equilibrate HCl salt Form A in Acetonitrile for 4 weeks at 40° C.,Compound I HCl Salt Form A
same,Resulting Form by XRPD,[2]; Equilibrate HCl salt Form A in Ethyl acetate for 4 weeks at 40° C.,Compound I HCl Salt Form A
same,Resulting Form by XRPD,[2]; Equilibrate HCl salt Form A in Heptane for 4 weeks at 40° C.,Compound I HCl Salt Form A
same,Resulting Form by XRPD,[2]; Equilibrate HCl salt Form A in MTBE for 4 weeks at 40° C.,Compound I HCl Salt Form A
same,Resulting Form by XRPD,[2]; Equilibrate HCl salt Form A in THF for 4 weeks at 40° C.,Compound I HCl Salt Form A
same,Resulting Form by XRPD,[2]; Equilibrate HCl salt Form A in Toluene for 4 weeks at 40° C.,Compound I HCl Salt Form A
same,Resulting Form by XRPD,[2]; Equilibrate HCl salt in Acetone for 4 weeks at 40° C.,Compound I HCl Salt Form A
same,stability upon slurry in solvents,"[2]; acetone, acetonitrile, ethyl acetate, heptane, MTBE, toluene, THF and mixtures, about 40° C. for about four weeks",stable
